Measurements from PMC6367342, “The major allergen Der p 2 is a cholesterol binding protein” (Scientific Reports, 2019).

Target: T1, rDer f 2 (Dermatophagoides farinae, UniProt Q00855)
T1 construct: gene DERF2
T1 sequence (Q00855 18-146): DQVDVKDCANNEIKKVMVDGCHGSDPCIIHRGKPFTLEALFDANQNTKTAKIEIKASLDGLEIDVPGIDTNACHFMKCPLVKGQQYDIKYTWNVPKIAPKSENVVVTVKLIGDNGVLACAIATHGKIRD
Assay: lipid ELISA on immobilized lipid, polyclonal anti-allergen IgG detection
Format: binding
Conditions: 0.5 ug/mL protein; lipid coated 0.02-6.40 nmol/well; PBS, 1% BSA block; 1 h

Structure (SMILES): CC(C)CCC[C@@H](C)[C@H]1CC[C@H]2[C@@H]3CC=C4C[C@@H](O)CC[C@]4(C)[C@H]3CC[C@]12C [cholesterol]
- lipid ELISA on immobilized lipid, polyclonal anti-allergen IgG detection: also showed dose-dependent binding to cholesterol, but not POPG
